This is an account of results in patent US4766131A, “2-amino (or hydroxy) phenethyl-1,2,3,4-tetrahydroisoquinolines as analgesics” (Pennwalt Corporation, priority 1986, dated 1988).

The conditions of experiment [1]: literature, Medicinal Chemistry, Vol. 5; cited from earlier work.
The subject of experiment [2] is mice. As to the kind of experiment: phenyl-benzoquinone (PBQ) writhing test. In kind it is in vivo, mouse. On the procedure: (§1) Two compounds, N-(4-aminophenethyl)-1,2,3,4-tetrahydro-6,7-dimethoxy-1-methylisoquinoline(Compound No. 1) and its N-methyl derivative (Compound No. 2) were tested for analgesic activity in rats and mice by the oral and subcutaneous routes. In addition, gross behavioral and toxicological effects (as well as general pharmacological profiling) were evaluated in mice by the intraperitoneal route of administration.
In mice, two test procedures designed to detect analgesic activity were used: the phenyl-benzoquinone (PBQ) writhing test and the hot plate test. […] […] In the hot plate test, subjects were placed on the surface of a hot copper plate maintained at 54.5°±1.0° C. For the oral studies drugs were injected 30 minutes before testing on the hot plate. Drugged animals whose reaction time (consisting of paw licking or jumping behavior) was equal to or greater than 2 seconds over the average of an untreated control group of mice were considered to be protected from the pain.

Experiment [3] concerns mice. As to the kind of experiment: hot plate test in mice. In kind it is in vivo. The settings on record: po, 0.5 h; mouse, p.o., 30 minutes before testing, 54.5°±1.0° C.; read-out: ED50 (95% C.L.), Mouse Hot Plate. On the procedure:
as §1
In mice, two test procedures designed to detect analgesic activity were used: the phenyl-benzoquinone (PBQ) writhing test and the hot plate test. In the PBQ procedure, the drugs were injected 15 minutes before an intraperitoneal injection of PBQ was made for the subcutaneous studies and 30 minutes before the PBQ for the oral studies. […] In the hot plate test, subjects were placed on the surface of a hot copper plate maintained at 54.5°±1.0° C. For the oral studies drugs were injected 30 minutes before testing on the hot plate. Drugged animals whose reaction time (consisting of paw licking or jumping behavior) was equal to or greater than 2 seconds over the average of an untreated control group of mice were considered to be protected from the pain.
On the technique in general: Thermal pain tests record how soon the animal reacts.

Experiment [4] relates to rats. The experiment is described as follows: tail flick test in rats. Type of experiment: in vivo. The settings on record: po, 1 h; rat, p.o., 60 minute post dose interval; read-out: ED50 (95% C.L.), Rat Tail Flick. On the procedure:
as §1
In rats, two procedures designed to detect anlgesic acitivity were used: the hot plate test and the tail flick test. In the hot plate test, rats were placed on the surface of a copper plate maintained at 54.5°±1.0° C. and their response latency (again consisting of paw licking or jumping behavior) determined at 60 minutes and again at 30 minutes before drug injection. These response times were again determined 30 and 60 minutes after drug injection and animals whose response latencies were equal to or greater than three seconds over the second pre-treatment trial (i.e., the one done 30 minutes before dosing) were considered protected from the pain. In the tail flick procedure, a high intensity light beam was focused on the blackened portion of the rat's tail and the reaction time, i.e., latency to move its tail, was measured before and 15, 30, 45, 60, 90 and 120 minutes after drug administration. […]

Experiment [5] has as its system rats. As to the kind of experiment: hot plate test in rats. Type of experiment: in vivo. Conditions: 1 h, rat, 60 minute post dose interval, 54.5°±1.0° C., read-out: ED50 (95% C.L.), Rat Hot Plate. On the procedure: as §1
In rats, two procedures designed to detect anlgesic acitivity were used: the hot plate test and the tail flick test. In the hot plate test, rats were placed on the surface of a copper plate maintained at 54.5°±1.0° C. and their response latency (again consisting of paw licking or jumping behavior) determined at 60 minutes and again at 30 minutes before drug injection. These response times were again determined 30 and 60 minutes after drug injection and animals whose response latencies were equal to or greater than three seconds over the second pre-treatment trial (i.e., the one done 30 minutes before dosing) were considered protected from the pain. In the tail flick procedure, a high intensity light beam was focused on the blackened portion of the rat's tail and the reaction time, i.e., latency to move its tail, was measured before and 15, 30, 45, 60, 90 and 120 minutes after drug administration. A subject was considered protected from the pain stimulus when Po ≥Pr +Pr 2 where Po is the individual post treatment value and Pr, the pretreatment value. The ED50's reported below for both of these procedures were calculated from values obtained at the 60 minute post dose interval.

Where [6] appears, read: sc, 0.25 h, mouse PBQ assay, s.c., 15 min post dose, table 6, read-out: Analgesic activity, s.c. ED50 at 15 min post dose.
Where [7] appears, read: sc, 0.75 h, mouse PBQ assay, s.c., 45 min post dose, table 6, read-out: Analgesic activity, s.c. ED50 at 45 min post dose.
Setting [8] is: po, 0.5 h, mouse, p.o., drug 30 minutes before PBQ, read-out: ED50 (95% C.L.), Mouse PBQ.
The mark [9] stands for this setting: sc, 0.25 h, mouse, s.c., drug 15 minutes before PBQ, table 5, read-out: ED50 (95% C.L.), Mouse PBQ.

As a reminder, the ED50 is the dose at which the effect has come halfway, by size or by number of responders.

Counter-ions that a name gives are not always drawn.

`COc1cc2c(cc1OC)C(C)N(CCc1ccc(Cl)cc1)CC2` (stereo not drawn): in experiment [1], the “analgesic properties / activity reported by Brossi et al” value is listed as “reported not to exhibit analgesic properties”.
`COc1cc2c(cc1OC)C(C)N(CCc1ccc(O)cc1)CC2.Cl` (stereo not drawn) [Example 12, N-(4-Hydroxyphenethyl)-1,2,3,4-tetrahydro-6,7-dimethoxy-1-methylisoquinoline hydrochloride]: the ED50 in the experiment with mice [2] (setting [6]) is 5.8 mg/kg; with mice [2] (setting [7]), 10 to 31.6 mg/kg.
For `COc1ccc2c(c1)CCN(CCc1ccc(N)cc1)C2C.Cl.Cl` (stereo not drawn) [Example 10, N-(4-Aminophenethyl)-1,2,3,4-tetrahydro-6-methoxy-1-methyl-isoquinoline dihydrochloride], the ED50 in the experiment on mice [2] (setting [6]) amounted to 6.5 mg/kg; in the experiment on mice [2] (setting [7]), 11.8 mg/kg.
As to `COc1cc2c(cc1OC)C(C)N(CCc1ccc(NC(C)=O)cc1)CC2.Cl` (stereo not drawn) [Example 6, N-(4-Acetamidophenethyl)-1,2,3,4-tetrahydro-6,7-dimethoxy-1-methylisoquinoline hydrochloride], the figures for the median effective dose (ED50) in the experiment on mice [2] (setting [6]) and in the experiment on mice [2] (setting [7]) were 21 mg/kg and 31.6 to 56.2 mg/kg, respectively.
In the case of `COc1ccc2c(c1)CCN(CCc1ccc(NC=O)cc1)C2C` (stereo not drawn) [Example 11 (N--Formyl), N-(4-Formamidophenethyl)-1,2,3,4-tetrahydro-6-methoxy-1-methylisoquinoline], the ED50 with mice [2] (setting [6]) was determined as 3.5 mg/kg; with mice [2] (setting [7]) it was 15.3 mg/kg.
As to `CNc1ccc(CCN2CCc3cc(OC)ccc3C2C)cc1.Cl` (stereo not drawn) [Example 11, N-(4-Methylaminophenethyl)-1,2,3,4-tetrahydro-6-methoxy-1-methylisoquinoline hydrochloride], the ED50 in the experiment on mice [2] (setting [6]) was determined as 6 mg/kg; in the experiment with mice [2] (setting [7]) it was 13.8 mg/kg.
Regarding `CNc1ccc(CCN2CCc3cc(OC)c(OC)cc3C2C)cc1.Cl` (stereo not drawn) [Example 2, N-(4-Methylaminophenethyl)-1,2,3,4-tetrahydro-6,7-dimethoxy-1-methylisoquinoline hydrochloride], the 50% effective dose (ED50) was 42.8 mg/kg in the experiment with mice [2] (setting [8]); 5.2 mg/kg in the experiment with mice [2] (setting [9]); 31.7 mg/kg with mice [3]; 30 to 60 mg/kg in the experiment with rats [4]; approximately 17.8 mg/kg in the experiment on rats [5] (po, p.o.).
Consider `COc1cc2c(cc1OC)C(C)N(CCc1ccc(N(C)C)cc1)CC2.Cl.Cl` (stereo not drawn) [Example 5, N-(4-Dimethylaminophenethyl)-1,2,3,4-tetrahydro-6,7-dimethoxy-1-methylisoquinoline dihydrochloride], for which the ED50 came out at 27.3 mg/kg in the experiment with mice [2] (setting [6]) and 26.7 mg/kg in the experiment on mice [2] (setting [7]).
Consider `COc1cc2c(cc1OC)C(C)N(CCc1cccc(N)c1)CC2.Cl.Cl` (stereo not drawn) [Example 3, N-(3-Aminophenethyl)-1,2,3,4-tetrahydro-6,7-dimethoxy-1-methylisoquinoline dihydrochloride], for which the ED50 stood at 11.9 mg/kg in the experiment on mice [2] (setting [6]) and 20.2 mg/kg in the experiment with mice [2] (setting [7]).
The corresponding values for `COc1cc2c(cc1OC)CN(CCc1ccc(N)cc1)CC2.Cl.Cl` [Example 8, N-(4-Aminophenethyl)-1,2,3,4-tetrahydro-6,7-dimethoxyisoquinoline dihydrochloride] are 2.9 mg/kg and 16.2 mg/kg.
The corresponding values for `COc1cc2c(cc1OC)CN(CCc1ccc([N+](=O)[O-])cc1)CC2.Cl` [Example 7, N-(4-Nitrophenethyl)-1,2,3,4-tetrahydro-6,7-dimethoxyisoquinoline hydrochloride] are 9 mg/kg and 34 mg/kg.
The like results for `CC1c2cc(O)c(O)cc2CCN1CCc1ccc(N)cc1` (stereo not drawn) [Example 15, N-(4-Aminophenethyl)-1,2,3,4-tetrahydro-6,7-dihydroxy-1-methylisoquinolinedihydrobromide] were, in that order, 25.4 mg/kg and approximately 100 mg/kg.
In the case of `COc1ccc2c(c1)CCN(CCc1ccc([N+](=O)[O-])cc1)C2C.Cl.Cl` (stereo not drawn) [Example 9, N-(4-Nitrophenethyl)-1,2,3,4-tetrahydro-6-methoxy-1-methylisoquinoline dihydrochloride], the ED50 with mice [2] (setting [6]) was found to be 10.4 mg/kg; in the experiment with mice [2] (setting [7]), 16.4 mg/kg.
In the case of `COc1cc2c(cc1OC)C(C)N(CCc1ccc(N)cc1)CC2` (stereo not drawn) [Example 1, N-(4-aminophenethyl)-1,2,3,4-tetrahydro-6,7-dimethoxy-1-methylisoquinoline], the ED50 in the experiment with mice [2] (setting [8]) was 48.5 mg/kg; in the experiment with mice [2] (setting [6]), 7 mg/kg; in the experiment on mice [2] (setting [9]), 3.7 mg/kg; in the experiment on mice [2] (setting [7]), 24.2 mg/kg; in the experiment on mice [3], 25.7 mg/kg; with rats [4], approximately 31.6 mg/kg. For the same compound, the ED50 with rats [5] (po, p.o.) was 30 to 60 mg/kg; with rats [5] (sc, s.c.), 35.7 mg/kg.
As for `COc1cc2c(cc1OC)C(C)N(CCc1ccccc1N)CC2` (stereo not drawn) [Example 4, N-(2-Aminophenethyl-1,2,3,4-tetrahydro-6,7-dimethoxy-1-methylisoquinolinedihydrochloride], the ED50 in the experiment with mice [2] (setting [6]) came out at 10.7 mg/kg; in the experiment on mice [2] (setting [7]), 34 mg/kg.
On to `COc1cc2c(cc1O)CCN(CCc1ccc(N)cc1)C2C.Cl.Cl` (stereo not drawn) [Example 14, N-(4-Aminophenethyl)-1,2,3,4-tetrahydro-6-hydroxy-7-methoxy-1-methylisoquinoline dihydrochloride], for which the ED50 in the experiment on mice [2] (setting [6]) came to 7.3 mg/kg; in the experiment on mice [2] (setting [7]), 25.8 mg/kg.
The like results for `COc1cc2c(cc1OC)CN(CCc1ccc(O)cc1)CC2.Cl` [Example 13, N-(4-Hydroxyphenethyl)-1,2,3,4-tetrahydro-6,7-dimethoxyisoquinoline hydrochloride] were, in that order, 2.8 mg/kg and 22.4 mg/kg.
